Data reported in PubChem BioAssay AID1963962 (Molecular Pharmacology Branch, DTP, NCI, 2024).

Tested on: 967376-340-R-J2-PDC multicell spheroid viability
Assay: Anticancer human tumor 967376-340-R-J2-PDC patient-derived colon adenocarcinoma cell line growth inhibition [PI3K]
Details: for IC50: curve of first compound; for viability, T/C: stronger effect = lower value
In short: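 Spheroid viability read-out. Co-cultures contained the tumor line plus HUVEC and human MSCs. Each agent was paired with a PI3K inhibitor (inavolisib, alpelisib, duvelisib, copanlisib) across half-log dilutions starting at clinical Cmax, or at 10 microM when Cmax was unknown.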

[1] = second compound 0.0316 µM, first compound 0.0316 µM
[2] = second compound 0.0316 µM, first compound 0.1 µM
[3] = second compound 0.0316 µM, first compound 0.316 µM
[4] = second compound 0.0316 µM, first compound 1 µM
[5] = second compound 0.0316 µM, first compound 3.16 µM
[6] = second compound 0.0316 µM, first compound 10 µM
[7] = second compound 0.1 µM, first compound 0.0316 µM
[8] = second compound 0.1 µM, first compound 0.1 µM
[9] = second compound 0.1 µM, first compound 0.316 µM
[10] = second compound 0.1 µM, first compound 1 µM
[11] = second compound 0.1 µM, first compound 3.16 µM
[12] = second compound 0.1 µM, first compound 10 µM
[13] = second compound 0.316 µM, first compound 0.0316 µM
[14] = second compound 0.316 µM, first compound 0.1 µM
[15] = second compound 0.316 µM, first compound 0.316 µM
[16] = second compound 0.316 µM, first compound 1 µM
[17] = second compound 0.316 µM, first compound 3.16 µM
[18] = second compound 0.316 µM, first compound 10 µM
[19] = second compound 1 µM, first compound 0.0316 µM
[20] = second compound 1 µM, first compound 0.1 µM
[21] = second compound 1 µM, first compound 0.316 µM
[22] = second compound 1 µM, first compound 1 µM
[23] = second compound 1 µM, first compound 3.16 µM
[24] = second compound 1 µM, first compound 10 µM
[25] = second compound 3.16 µM, first compound 0.0316 µM
[26] = second compound 3.16 µM, first compound 0.1 µM
[27] = second compound 3.16 µM, first compound 0.316 µM
[28] = second compound 3.16 µM, first compound 1 µM
[29] = second compound 3.16 µM, first compound 3.16 µM
[30] = second compound 3.16 µM, first compound 10 µM
[31] = second compound 10 µM, first compound 0.0316 µM
[32] = second compound 10 µM, first compound 0.1 µM
[33] = second compound 10 µM, first compound 0.316 µM
[34] = second compound 10 µM, first compound 1 µM
[35] = second compound 10 µM, first compound 3.16 µM
[36] = second compound 10 µM, first compound 10 µM
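Further: spheroids exposed to agents for 7 days before read-out.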
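Wherever viability, T/C is given: luminescence used as surrogate of cell viability.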

CC(C)NCC(C(=O)N1CCN(c2ncnc3c2C(C)CC3O)CC1)c1ccc(Cl)cc1 (stereo unspecified) + Cc1nc(NC(=O)N2CCCC2C(N)=O)sc1-c1ccnc(C(C)(C)C(F)(F)F)c1 gave an IC50 (second compound 0.0316 µM) of over 10 µM, an IC50 (second compound 0.1 µM) of over 10 µM and an IC50 (second compound 0.316 µM) of over 10 µM. For the same compound, the IC50 (second compound 1 µM) was over 10 µM, the IC50 (second compound 3.16 µM) was over 10 µM and the IC50 (second compound 10 µM) was over 10 µM. For the same compound, the viability, T/C [1] was 118%, the viability, T/C [2] was 100% and the viability, T/C [3] was 115%. It also gave a viability, T/C [4] of 80.5%, a viability, T/C [5] of 77.8% and a viability, T/C [6] of 80.8%. It also gave a viability, T/C [7] of 96.4%, a viability, T/C [8] of 82.3% and a viability, T/C [9] of 85.1%. The viability, T/C [10] was 70.3%, the viability, T/C [11] was 68.4% and the viability, T/C [12] was 87%. It also gave a viability, T/C [13] of 88.6%, a viability, T/C [14] of 78.6% and a viability, T/C [15] of 65.5%. For the same compound, the viability, T/C [16] was 81.1%, the viability, T/C [17] was 84% and the viability, T/C [18] was 70%. It also gave a viability, T/C [19] of 62.3%, a viability, T/C [20] of 64.2% and a viability, T/C [21] of 73%. It also gave a viability, T/C [22] of 78.4%, a viability, T/C [23] of 72.3% and a viability, T/C [24] of 63.5%. For the same compound, the viability, T/C [25] was 67.1%, the viability, T/C [26] was 68% and the viability, T/C [27] was 56.8%. The viability, T/C [28] was 50.7%, the viability, T/C [29] was 62.4% and the viability, T/C [30] was 57.4%. For the same compound, the viability, T/C [31] was 56%, the viability, T/C [32] was 54.8% and the viability, T/C [33] was 52.4%. For the same compound, the viability, T/C [34] was 49.1%, the viability, T/C [35] was 55.6% and the viability, T/C [36] was 50.5%.

CCN1CCN(Cc2ccc(Nc3ncc(F)c(-c4cc(F)c5nc(C)n(C(C)C)c5c4)n3)nc2)CC1 + Cc1nc(NC(=O)N2CCCC2C(N)=O)sc1-c1ccnc(C(C)(C)C(F)(F)F)c1 showed an IC50 (second compound 0.0316 µM) of over 1 µM, an IC50 (second compound 0.1 µM) of over 1 µM and an IC50 (second compound 0.316 µM) of over 1 µM. The IC50 (second compound 1 µM) was 0.162 µM, the IC50 (second compound 3.16 µM) was 0.0774 µM and the IC50 (second compound 10 µM) was under 0.00316 µM. For the same compound, the viability, T/C (second compound 0.0316 µM, first compound 0.00316 µM) was 107%, the viability, T/C (second compound 0.0316 µM, first compound 0.01 µM) was 64.6% and the viability, T/C [1] was 90.9%. For the same compound, the viability, T/C [2] was 77%, the viability, T/C [3] was 77.8% and the viability, T/C [4] was 64.7%. The viability, T/C (second compound 0.1 µM, first compound 0.00316 µM) was 109%, the viability, T/C (second compound 0.1 µM, first compound 0.01 µM) was 72.5% and the viability, T/C [7] was 90.5%. It also gave a viability, T/C [8] of 67.4%, a viability, T/C [9] of 54.3% and a viability, T/C [10] of 58.9%. For the same compound, the viability, T/C (second compound 0.316 µM, first compound 0.00316 µM) was 75.8%, the viability, T/C (second compound 0.316 µM, first compound 0.01 µM) was 82.1% and the viability, T/C [13] was 64.2%. The viability, T/C [14] was 58.4%, the viability, T/C [15] was 60.8% and the viability, T/C [16] was 57.4%. It also gave a viability, T/C (second compound 1 µM, first compound 0.00316 µM) of 56%, a viability, T/C (second compound 1 µM, first compound 0.01 µM) of 72% and a viability, T/C [19] of 58.4%. It also gave a viability, T/C [20] of 46.1%, a viability, T/C [21] of 49.4% and a viability, T/C [22] of 32.8%. For the same compound, the viability, T/C (second compound 3.16 µM, first compound 0.00316 µM) was 62.3%, the viability, T/C (second compound 3.16 µM, first compound 0.01 µM) was 78.5% and the viability, T/C [25] was 59%. For the same compound, the viability, T/C [26] was 49%, the viability, T/C [27] was 44.1% and the viability, T/C [28] was 41.5%. The viability, T/C (second compound 10 µM, first compound 0.00316 µM) was 47.1%, the viability, T/C (second compound 10 µM, first compound 0.01 µM) was 49% and the viability, T/C [31] was 45.4%. It also gave a viability, T/C [32] of 37%, a viability, T/C [33] of 40.3% and a viability, T/C [34] of 27.1%.

Cn1ncc(Cl)c1-c1cc(C(=O)NC(CN)Cc2cccc(F)c2)sc1Cl (stereo unspecified) + Cc1nc(NC(=O)N2CCCC2C(N)=O)sc1-c1ccnc(C(C)(C)C(F)(F)F)c1 was tested, and the IC50 (second compound 0.0316 µM) was over 10 µM, the IC50 (second compound 0.1 µM) was 7.44 µM and the IC50 (second compound 0.316 µM) was over 10 µM. The IC50 (second compound 1 µM) was 4.6 µM, the IC50 (second compound 3.16 µM) was 5.42 µM and the IC50 (second compound 10 µM) was 0.366 µM. The viability, T/C [1] was 108%, the viability, T/C [2] was 79% and the viability, T/C [3] was 77.8%. The viability, T/C [4] was 72.3%, the viability, T/C [5] was 61.3% and the viability, T/C [6] was 71.4%. It also gave a viability, T/C [7] of 75.6%, a viability, T/C [8] of 91% and a viability, T/C [9] of 76.5%. The viability, T/C [10] was 82.6%, the viability, T/C [11] was 75.2% and the viability, T/C [12] was 41.1%. The viability, T/C [13] was 72.8%, the viability, T/C [14] was 82% and the viability, T/C [15] was 78.1%. For the same compound, the viability, T/C [16] was 89.6%, the viability, T/C [17] was 61.6% and the viability, T/C [18] was 59.9%. The viability, T/C [19] was 62.2%, the viability, T/C [20] was 83.4% and the viability, T/C [21] was 60.5%. It also gave a viability, T/C [22] of 65%, a viability, T/C [23] of 55.3% and a viability, T/C [24] of 38.9%. The viability, T/C [25] was 52.2%, the viability, T/C [26] was 55.9% and the viability, T/C [27] was 53.2%. For the same compound, the viability, T/C [28] was 61.3%, the viability, T/C [29] was 52% and the viability, T/C [30] was 42.4%. The viability, T/C [31] was 60.4%, the viability, T/C [32] was 55.6% and the viability, T/C [33] was 51.2%. It also gave a viability, T/C [34] of 40.8%, a viability, T/C [35] of 46.7% and a viability, T/C [36] of 32.8%.
